Each structure is given as a SMILES string.

One test addresses T1, Human Recombinant Matriptase 2 (Homo sapiens, UniProt Q8IU80).
T1 construct: made in house
T1 sequence (Q8IU80 1-811): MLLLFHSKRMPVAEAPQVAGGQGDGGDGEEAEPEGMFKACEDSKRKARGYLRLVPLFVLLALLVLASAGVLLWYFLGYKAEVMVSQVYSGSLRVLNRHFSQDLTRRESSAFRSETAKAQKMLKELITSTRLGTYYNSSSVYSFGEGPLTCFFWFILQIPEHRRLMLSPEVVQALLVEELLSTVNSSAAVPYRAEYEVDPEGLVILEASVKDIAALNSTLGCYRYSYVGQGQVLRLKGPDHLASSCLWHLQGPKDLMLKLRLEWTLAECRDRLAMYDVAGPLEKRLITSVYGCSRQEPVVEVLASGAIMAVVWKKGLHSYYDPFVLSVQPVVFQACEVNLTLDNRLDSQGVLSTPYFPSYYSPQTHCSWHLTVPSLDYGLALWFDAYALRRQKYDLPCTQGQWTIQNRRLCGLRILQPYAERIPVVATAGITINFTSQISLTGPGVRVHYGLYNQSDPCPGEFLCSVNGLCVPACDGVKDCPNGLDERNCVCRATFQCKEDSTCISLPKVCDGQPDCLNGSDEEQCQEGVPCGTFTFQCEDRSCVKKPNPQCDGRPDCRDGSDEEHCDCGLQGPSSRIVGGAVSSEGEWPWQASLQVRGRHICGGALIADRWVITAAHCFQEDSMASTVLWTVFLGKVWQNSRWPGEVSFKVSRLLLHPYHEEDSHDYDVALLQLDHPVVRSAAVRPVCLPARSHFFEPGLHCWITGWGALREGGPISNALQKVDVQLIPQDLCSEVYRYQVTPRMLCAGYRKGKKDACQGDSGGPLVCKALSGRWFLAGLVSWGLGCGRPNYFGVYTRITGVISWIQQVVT
Description: Matriptase 2 inhibition, fluorescence based assay (Method I). The conditions noted are these: Table A; Ki of Matriptase-2; read-out: Mat-2 Ki. Format: biochemical. The method, boiled down:
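Fluorogenic readout (Ex 360/Em 480 nm) taken 60 min after adding 62 μM Boc-Gln-Ala-Arg-AMC, following 30-min enzyme–compound preincubation at 25 °C. Conditions: 3.5 nM in-house enzyme, pH 7.5 Tris/NaCl/gelatin buffer, 1% DMSO; percent inhibition versus concentration fitted by variable-slope sigmoidal regression.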
Turning to `CN(CCOC(=O)c1cc2ccc(CN)nc2n1Cc1cc(NS(=O)(=O)Cc2ccccc2)cc2ccccc12)Cc1ccccc1` [Compound 134, 2-[benzyl(methyl)-amino]ethyl 6-(amino-methyl)-1-{[3-(phenyl-methanesulfonamido)-naphthalen-1-yl]methyl}-1H-pyrrolo[2,3-b]pyr-idine-2-carboxylate], the Ki was 100 to 500 nM.
Same read-out and setting: as for `Cc1cccc(C)c1CS(=O)(=O)Nc1cc(Cn2c(C(=O)OCCCN3CCOCC3)cc3ccc(CN)nc32)c2ccccc2c1` [Compound 190, 3-(morpholin-4-yl)prop-yl 6-(aminomethyl)-1-({3-[(2,6-dimethylphen-yl)methanesulfonamido]-naphthalen-1-yl}meth-yl)-1H-pyrrolo[2,3-b]-pyridine-2-carboxylate], the figure is at most 100 nM; as for `CC(=O)N(C)CCOC(=O)c1cc2ccc(CN)nc2n1Cc1cc(NS(=O)(=O)Cc2ccccc2)cc2ccccc12` [Compound 141, 2-(N-methylacetamido)-ethyl 6-(aminomethyl)-1-{[3-(phenylmethane-sulfonamido)naphthalen-1-yl]methyl}-1H-pyrrolo-[2,3-b]pyridine-2-car-boxylate], 100 to 500 nM.
Regarding `CC(CCN(C)C)S(=O)(=O)Nc1cc(Cn2c(C(=O)O)cc3ccc(CN)nc32)c2ccccc2c1` (racemic) [Compound 8, 6-(aminomethyl)-1-((3-((3-(dimethylamino)-1-methylpropyl)sulfonamido)naphthalen-1-yl)methyl)-1H-pyrrolo[2,3-b]pyridine-2-carboxylic acid], the Ki lay in the range of 100 to 500 nM.
The same measure, in the same setting: the same measure for `CC(C)n1ccnc1COC(=O)c1cc2ccc(CN)nc2n1Cc1cc(NS(=O)(=O)Cc2ccccc2)cc2ccccc12` [Compound 74, [1-(propan-2-yl)-1H-imidazol-2-yl]methyl 6-(aminomethyl)-1-{[3-(phenylmethanesulfon-amido)naphthalen-1-yl]-methyl}-1H-pyrrolo-[2,3-b]pyridine-2-car-boxylate]: at most 100 nM; for `NCc1ccc2cc(C(=O)OCCCN3CCOCC3)n(Cc3cc(NS(=O)(=O)Cc4ccsc4)cc4ccccc34)c2n1` [Compound 160, 3-(morpholin-4-yl)prop-yl 6-(aminomethyl)-1-({3-[(thiophen-3-yl)meth-anesulfonamido]naph-thalen-1-yl}methyl)-1H-pyrrolo[2,3-b]pyridine-2-carboxylate]: at most 100 nM.
The same measure, in the same setting: as for `Cc1cscc1CS(=O)(=O)Nc1cc(Cn2c(C(=O)OCC3CCN(C)CC3)cc3ccc(CN)nc32)c2ccccc2c1` [Compound 163, (1-methylpiperidin-4-yl)-methyl 6-(aminomethyl)-1-({3-[(4-methylthio-phen-3-yl)methanesul-fonamido]naphthalen-1-yl}methyl)-1H-pyrrolo-[2,3-b]pyridine-2-car-boxylate], the figure is at most 100 nM; as for `NCc1ccc2cc(C(=O)OC[C@H]3CCCN3)n(Cc3cc(NS(=O)(=O)Cc4ccccc4)cc4ccccc34)c2n1` (racemic) [Compound 108, rac-[(2R)-pyrrolidin-2-yl]methyl 6-(aminometh-yl)-1-{[3-(phenylmeth-anesulfonamido)naph-thalen-1-yl]methyl}-1H-pyrrolo[2,3-b]pyridine-2-carboxylate], 100 to 500 nM.
The same measure, in the same setting: as for `COC(=O)c1cc2ccc(CN)nc2n1Cc1cc(NS(=O)(=O)Cc2ccccc2)cc2ccccc12` [Compound 116, methyl 6-(aminomethyl)-1-{[3-(phenylmethane-sulfonamido)naphthalen-1-yl]methyl}-1H-pyrrolo-[2,3-b]pyridine-2-car-boxylate], the figure is 500 to 3000 nM; as for `NCc1ccc2cc(C(=O)O)n(Cc3cc(NS(=O)(=O)[C@H](F)c4ccccc4)cc4ccccc34)c2n1` (racemic) [Compound 98, 6-(aminomethyl)-1-({3-[fluoro(phenyl)methane-sulfonamido]naphthalen-1-yl}methyl)-1H-pyr-rolo[2,3-b]pyridine-2-carboxylic acid], 100 to 500 nM.

The same test, now with this note: Table A; Ki of Matriptase-2 given as class symbols; read-out: Mat-2 Ki.
`CCOC(=O)c1cc2ccc(CN)nc2n1Cc1cc(NS(=O)(=O)CC2CCNCC2)cc2ccccc12` [Compound 241, ethyl 6-(aminomethyl)-1-({3-[(piperidin-4-yl)-methanesulfonamido]-naphthalen-1-yl}methyl)-1H-pyrrolo[2,3-b]pyr-idine-2-carboxylate]: the inhibition constant Ki was in the range of 100 to 500 nM.
With `NCc1ccc2cc(C(=O)O)n(Cc3cc(NC(=O)N4CC5CCCC5C4)cc4ccccc34)c2n1` (stereo not drawn) [Compound 297, 6-(aminomethyl)-1-{[3-({octahydrocyclopenta-[c]pyrrole-2-carbonyl}-amino)naphthalen-1-yl]-methyl}-1H-pyrrolo[2,3-b]pyridine-2-carboxylic acid], the inhibitory constant (Ki) was in the range of 500 to 3000 nM.
Regarding `CC(C)(C)n1cncc1COC(=O)c1cc2ccc(CN)cc2n1Cc1cc(NS(=O)(=O)Cc2ccsc2)cc2ccccc12` [Compound 385, (1-tert-butyl-1H-imid-azol-5-yl)methyl 6-(aminomethyl)-1-({3-[(thiophen-3-yl)methane-sulfonamido]naphthalen-1-yl}methyl)-1H-indole-2-carboxylate], the Ki was 100 to 500 nM.
On the same count and under the same terms, as for `COC(=O)NCCNC(=O)c1cc2ccc(CN)nc2n1Cc1cc(NS(=O)(=O)CC[C@@H]2CCCN2)cc2ccccc12` [Compound 258, methyl N-(2-{[6-(amino-methyl)-1-[(3-{2-[(2S)-pyrrolidin-2-yl]ethane-sulfonamido}naphthalen-1-yl)methyl]-1H-pyr-rolo[2,3-b]pyridin-2-yl]-formamido}ethyl)car-bamate], the figure is 100 to 500 nM; as for `CN1CCC(CS(=O)(=O)Nc2cc(Cn3c(C(=O)O)cc4ccc(CN)nc43)c3ccccc3c2)CC1` [Compound 237, 6-(aminomethyl)-1-({3-[(1-methylpiperidin-4-yl)methanesulfonamido]-naphthalen-1-yl}methyl)-1H-pyrrolo[2,3-b]pyr-idine-2-carboxylic acid], 100 to 500 nM.
With `Cc1cccc(C)c1CS(=O)(=O)Nc1cc(Cn2c(C(=O)OCCN(C)C)cc3ccc(CN)nc32)c2ccccc2c1` [Compound 201, 2-(dimethylamino)ethyl 6-(aminomethyl)-1-({3-[(2,6-dimethylphenyl)-methanesulfonamido]-naphthalen-1-yl}methyl)-1H-pyrrolo[2,3-b]pyr-idine-2-carboxylate], the Ki was in the range of 100 to 500 nM.
Same read-out and setting: the same measure for `NCc1ccc2cc(C(=O)O)n(Cc3cc(NS(=O)(=O)CC4CCC(C(F)(F)F)CC4)cc4ccccc34)c2c1` (stereo not drawn) [Compound 392]: 500 to 3000 nM; for `CNCCOC(=O)c1cc2ccc(CN)nc2n1Cc1cc(NS(=O)(=O)CC[C@@H]2CCCN2)cc2ccccc12` [Compound 283, 2-(methylamino)ethyl 6-(aminomethyl)-1-[(3-{2-[(2S)-pyrrolidin-2-yl]-ethanesulfonamido}-naphthalen-1-yl)methyl]-1H-pyrrolo[2,3-b]pyr-idine-2-carboxylate]: 500 to 3000 nM.

Staying with this test, now noted: Table B; Human Recombinant Matriptase 2, 3.5 nM enzyme, 62 μM substrate, 30 mins preincubation; read-out: Mean Ki.
Turning to `CN(C)C(=O)CCCOC(=O)c1cc2ccc(CN)nc2n1Cc1cc(CS(=O)(=O)Cc2ccsc2)cc2ccccc12` [Compound 2.10], the Ki is at most 100 nM.
As for `CN1CCC(COC(=O)c2cc3ccc(CN)nc3n2Cc2cccc(NS(=O)(=O)Cc3ccccc3)c2)CC1` [Compound 2.48], the Ki is 100 to 500 nM.
On the same count and under the same terms, as for `CNC12CC(COC(=O)c3cc4ccc(CN)nc4n3Cc3cc(NS(=O)(=O)Cc4ccccc4)cc4ccccc34)(C1)C2` [Compound 2.41], the figure is at most 100 nM.

As usually defined, the Ki is the dissociation constant of the complex between target and ligand, obtained from inhibition or displacement.

(Values after patent US20240400553A1, “AMINE BASED MATRIPTASE 2 INHIBITORS AND USES THEREOF” (Disc Medicine, Inc., priority 2023, published 2024).)
